# Test results as given in patent US6699859B1 (dated 2004).
row,melting point [°C],Compound
1,221.9 to 222.8,Cn1cnc(COc2nn3c(-c4cccs4)nnc3c(Cl)c2N2CCOCC2)n1
2,174.5 to 176,Cn1ncnc1COc1nn2c(-c3ccccc3)nnc2c(Cl)c1N1CCCC1
